The text below walks through data of PMC8983499 (Cancer Research, 2022).

What all share (type): in vivo
A short description of one data set: Nephrotoxicity study. To be noted: BALB/cJ mice, intravenous, 3 days after drug administration, ELISA, n = 3/group.
A short description of a further data set: Toxicity profile. As to conditions: healthy BALB/cJ mice, intravenous weekly for 3 weeks, DM1 and DM1–Bdd 0.75 mg/kg of drug content, CIS 10 mg/kg.
The nature of data set [1]: Fluorescence imaging of Cy-peptide analogues. To be noted: SHO mice, tail-vein injection 0.5 nmol, images 1 and 4 hours; in words.

In the case of `COc1cc2cc(c1Cl)N(C)C(=O)C[C@H](OC(=O)[C@H](C)N(C)C(=O)CCS)[C@]1(C)O[C@H]1[C@H](C)[C@@H]1C[C@@](O)(NC(=O)O1)[C@H](OC)/C=C/C=C(\C)C2` [DM1, N2'-deacetyl-N2'-(3-mercapto-1-oxopropyl)-maytansine], in “Nephrotoxicity study”, the “KIM-1 and/or NGAL in urine” value was “continued induction”. In “Toxicity profile”, the “serum biochemical analysis for liver injury and renal function” value was “induced hepatic and renal toxicity”. For the same molecule, the “hematology (blood cell counts and morphologic features)” value in the data set “Toxicity profile” (n = 4/group) is listed as “reticulocytosis without apparent anemia”.

On to `Nc1ccn([C@@H]2O[C@H](CO)[C@@H](O)C2(F)F)c(=O)n1` [GEM, gemcitabine], for which the “KIM-1 and/or NGAL in urine” value in “Nephrotoxicity study” is “continued induction”.

Take `CO[C@@]12[C@H](COC(N)=O)C3=C(C(=O)C(C)=C(N)C3=O)N1C[C@@H]1N[C@@H]12` [MIT, mitomycin]: the “KIM-1 and/or NGAL in urine” value in the data set “Nephrotoxicity study” is reported as “continued induction”.

On to Cyanine5.5 [free Cy], for which the “elimination and organ uptake by fluorescence imaging” value in data set [1] is given as “mainly taken up by liver and/or other organs”.
